This test deals with T1, NgTet1 (Naegleria gruberi, UniProt D2W6T1).
T1 construct: His6-tagged full-length Naegleria gruberi NgTet1 (321 a. a.) protein with a thrombin cleavage site; made in house; host or cells: E. coli BL21(DE3)
T1 sequence (D2W6T1 1-321): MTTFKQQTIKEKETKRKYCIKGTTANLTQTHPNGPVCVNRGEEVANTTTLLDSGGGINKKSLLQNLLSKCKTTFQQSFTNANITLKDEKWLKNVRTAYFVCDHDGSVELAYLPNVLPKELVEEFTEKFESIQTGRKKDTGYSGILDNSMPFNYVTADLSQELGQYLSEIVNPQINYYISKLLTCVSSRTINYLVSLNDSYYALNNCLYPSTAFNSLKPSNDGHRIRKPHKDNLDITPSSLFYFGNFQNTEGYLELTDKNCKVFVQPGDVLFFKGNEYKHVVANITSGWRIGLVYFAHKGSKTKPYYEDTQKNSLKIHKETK
In words: biochemical. The following applies: for normalised activity, %: AlphaScreen. The protocol:
(Fig. 5a), were screened for inhibitory activity against NgTet1.
Activity was normalised against reactions containing vehicle (DMSO). […] AS data shown as the mean of three experimental replicates (n = 3; mean ± SD); ^1H NMR data plotted from two independent replicates (n = 2); tabulated data reported as the mean of two and three independent replicates for ^1H NMR and AS, respectively (n = 2–3, SD reported for n = 3). N. d.: not determined; AS: AlphaScreen.
Compounds in DMSO (100 nL) were pre-dispensed in a logarithmically linear concentration gradient onto 384-well ProxiPlates using an Echo® 550 acoustic liquid handler (Labcyte). NgTet1 was pre-incubated with the inhibitor dilution series in DMSO at room temperature for 10 min. Reactions were initiated by the addition of appropriate cofactors and DNA. […] The reactions were quenched by the addition of 30 mM EDTA (pH 4.2), 358 mM NaCl (5 μL) within the enzyme linear activity window (determined in Fig. S10). Concurrently, a mixture containing the anti-^5hmC antibody (1:2000 dilution) and AlphaScreen beads (1:62.5 dilution) in assay buffer was prepared and incubated at room temperature for 30 min. The AlphaScreen bead/antibody mixture was added to the quenched NgTet1 reactions (5 μL), and the complete mixture was incubated at room temperature for 1 h. Chemiluminescence was measured on a PHERAstar FS/FSX (BMG Labtech) equipped with an AlphaScreen 680 570 module. All AlphaScreen bead manipulations were performed under subdued lighting. Inhibition data was normalised to reactions containing vehicle only (1% v/v DMSO) and fitted using “log(inhibitor) vs. response—Variable slope (four parameters)” non-linear regression model on GraphPad Prism 5.

The structures appear in SMILES notation. “And” between values parts separate entries of the source, which are not always exact repeats. Equal values may be shown once.

For orientation: IC50 means the concentration at which inhibition is half-maximal.

Consider `O=C(O)CNC(=O)C(=O)O` [NOG, N-oxalylglycine], for which the “normalised activity, %” value runs as follows: (-Log[inhibitor] (M) 3.30535) 27.0589% and 23.4073% and 23.5938%; (-Log[inhibitor] (M) 3.82823) 54.6166% and 46.9965% and 50.3704%; (-Log[inhibitor] (M) 4.30535) 72.1146% and 66.2321% and 78.0488%; (-Log[inhibitor] (M) 4.90741) 90.0386% and 80.363% and 83.4878%; (-Log[inhibitor] (M) 5.39553) 101.245% and 102.244% and 89.2336%; (-Log[inhibitor] (M) 5.91841) 103.288% and 99.259% and 97.2201%. Further, the “normalised activity, %” value runs as follows: (-Log[inhibitor] (M) 6.39553) 114.516% and 95.8112% and 105.039%; (-Log[inhibitor] (M) 6.99759) 113.992% and 95.1834% and 95.7883%; (-Log[inhibitor] (M) 7.50947) 110.682% and 100% and 109.028%; (-Log[inhibitor] (M) 8.03235) 108.192% and 91.8591% and 90.7491%. Under “read-out: IC50, 5mC ssDNA, AS”, the IC50 was 200 µM.

The values above are taken from paper PMC11662004 (Communications Chemistry, 2024).
